Assay results taken from US5391817A, “Biaryl phospholipase A2 inhibitors” (Bristol-Myers Squibb, priority 1993, dated 1995).

target: T1, PLA2 (Homo sapiens, UniProt P14555); experiment: PLA2 Inhibition Assay (14C-oleate labeled E. coli membrane substrate); assay type: biochemical; details: 100 μM (sic, Table 6); PLA2 from human platelets; pH 7, 37° C.
T1 construct: The enzyme is isolated from human platelets; from tissue; host or cells: human platelets
T1 sequence (P14555 21-144): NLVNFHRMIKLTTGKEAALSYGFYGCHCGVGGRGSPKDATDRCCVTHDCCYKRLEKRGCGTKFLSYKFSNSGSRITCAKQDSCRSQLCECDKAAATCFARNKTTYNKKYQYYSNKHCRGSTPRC
Description: The method used is similar to that reported by Franson, et al. [Jesse, R. L. and Franson R. C., Biochim. Biophys. Acta 575: 467-470 (1979); Franson, R. C., Patriarca, P., and Elsback, P., J. Lipid Res. 15: 380-388 (1974)]. The enzyme is isolated from human platelets. The substrate used consists of ^14 C-oleate labeled Escherichia coli membranes. E. coli cells are grown in the presence of ^14 C-oleic acid and then autoclaved to prepare the membranes.
Various concentrations of test compounds are preincubated with PLA2 (3.6 mg/mL in a buffer consisting of 25 mM HEPES (pH 7)), 150 mM NaCl, 5.0 mM CaCl2, and 10% DMSO (v/v, test compound solvent) at 37° C. for 7 minutes. The E. coli substrate is then added (0.1 mM phospholipid, 0,005 mCi ^14 C) and the reaction is then incubated at 37° C. for 30 minutes. The reaction is then terminated by the addition of 1.9 mL tetrahydrofuran (THF), and the entire solution is applied to a solid-phase extraction column (aminopropyl resin, Analytichem). The column is rinsed with an additional 1 mL of THF. The free fatty acid product of the reaction is then eluted from the column with 1 mL 2% acetic acid in THF and collected in a scintillation vial. The amount of free fatty acid product is determined by liquid scintillation counting. The amount of inhibition produced by the test compound is calculated by comparing the counts obtained in the presence of the compound to those obtained in its absence (solvent only). Background counts were determined by performing incubations in the absence of enzyme.
Percent inhibition is determined by the equation: [formula]

SMILES | % Inhibition of PLA2 at 100 .infin.M [%]
CC1(C)CCC(C)(C)c2cc(COc3ccccc3-c3cccc(C(=O)O)c3)ccc21 [Structure 52a, 2-[5,6,7,8-tetrahydro-5,5,8,8-tetramethyl-2-naphthalenyl]methoxy-[1,1'-biphenyl]-3'-carboxylic acid] | 83
CC1(C)CCC(C)(C)c2cc(COc3ccccc3-c3cccc(CC(=O)O)c3)ccc21 [Structure 57, 2-[5,6,7,8-tetrahydro-5,5,8,8-tetramethyl-2-naphthalenyl]methoxy-[1,1'-biphenyl]-3'-acetic acid] | 92
CC1(C)CCC(C)(C)c2cc(COc3ccccc3-c3ccccc3C(=O)O)ccc21 [Structure 52c, 2-[5,6,7,8-tetrahydro-5,5,8,8-tetramethyl-2-naphthalenyl]methoxy-[1,1'-biphenyl]-2'-carboxylic acid] | 72
CC1(C)CCC(C)(C)c2cc(COc3ccccc3-c3ccc(C(=O)O)cc3)ccc21 [Structure 52b, 2-[5,6,7,8-tetrahydro-5,5,8,8-tetramethyl-2-naphthalenyl]methoxy-[1,1'-biphenyl]-4'-carboxylic acid] | 66

same assay, conditions: 100 μM; PLA2 from human platelets; pH 7, 37° C.

SMILES | inhibition at 100 µM [%]
O=C(O)Cc1cccc(OCc2ccc(OC3CCCC3)c(OC3CCCC3)c2)c1-c1cccc(C(=O)O)c1 [Structure 30b, 2-[(3,4-biscyclopentyloxy)phenyl]methoxy-3'-carboxy-[1,1'-biphenyl]-6-acetic acid] | 79
CC1(C)CCC(C)(C)c2cc(COc3cccc(CCC(=O)O)c3-c3cccc(C(=O)O)c3)ccc21 [Structure 37d, 3'-carboxy-2-[5,6,7,8-tetrahydro-5,5,8,8-tetramethyl-2-naphthalenyl]methoxy-[1,1'-biphenyl]-6-propanoic acid] | 54
CC1(C)CCC(C)(C)c2cc(COc3cccc(CC(=O)O)c3-c3ccccc3)ccc21 [Structure 30e, 2-(5,6,7,8-tetrahydro-5,5,8,8-tetramethyl-2-naphthalenyl)methoxy-[1,1'-biphenyl]-6-acetic acid] | 59
CCOC(=O)c1cccc(-c2c(OCc3ccc4c(c3)C(C)(C)CCC4(C)C)cccc2C(=O)O)c1 [Structure 14l, 2-(5,6,7,8-tetrahydro-5,5,8,8-tetramethyl-2-naphthalenyl)methoxy-[1,1'-biphenyl]-6,3'-dicarboxylic acid, 3'-ethyl ester] | 54
O=C(O)Cc1cccc(/C=C/c2ccccc2)c1-c1cccc(C(=O)O)c1 [Structure 28a, (E) 2-styryl-6-carboxymethyl-1,1'-biphenyl-3'-carboxylic acid] | 28
CCCCCOc1ccc(COc2cccc(C(=O)O)c2-c2cccc(C(=O)O)c2)cc1OCCCCC [Structure 14c, 2-[(3,4-bispentyloxy)phenyl]methoxy-[1,1'-biphenyl]-6,3'-dicarboxylic acid] | 53
CC1(C)CCC(C)(C)c2cc(COc3cccc(C(=O)O)c3-c3ccccc3)ccc21 [Structure 14n, 2-(5,6,7,8-tetrahydro-5,5,8,8-tetramethyl-2-naphthalenyl)methoxy-[1,1'-biphenyl]-6-carboxylic acid] | 90
CCCCCOc1ccc(COc2cccc(CC(=O)O)c2-c2cccc(C(=O)O)c2)cc1OCCCCC [Structure 30a, 2-[(3,4-bispentyloxy)phenyl]methoxy-3'-carboxy-[1,1'-biphenyl]-6-acetic acid] | 96
C/C(=C\c1cccc(CC(=O)O)c1-c1cccc(C(=O)O)c1)c1ccc2c(c1)C(C)(C)CCC2(C)C [Structure 28b, 3'-carboxy-(E)-2-[(5,6,7,8-tetrahydro-5,5,8,8,-tetramethyl-2-naphthalenyl)-1-propenyl]-[1,1'-biphenyl]-6-acetic acid] | 96
CCCCCOc1ccc(COc2cccc(C(=O)O)c2-c2ccccc2)cc1O [Structure 14e, 2-[(3-hydroxy-4-pentyloxy)phenyl]methoxy-[1,1 '-biphenyl]-6-carboxylic acid] | 34
CC1(C)CCC(C)(C)c2cc(COc3cccc(C(=O)O)c3-c3cccc(C(=O)O)c3)ccc21 [Structure 14m, 2-(5,6,7,8-tetrahydro-5,5,8,8-tetramethyl-2-naphthalenyl)methoxy-[1,1'-biphenyl]-6,3'-dicarboxylic acid] | 54
COc1cc(COc2cccc(CC(=O)O)c2-c2cccc(C(=O)O)c2)ccc1C12CC3CC(CC(C3)C1)C2 [Structure 30d, 3'-carboxy-2-[4-(1-adamantyl)-3-methoxyphenyl]methoxy-[1,1'-biphenyl]-6-acetic acid] | 97
CC1(C)CCC(C)(C)c2cc(COc3cccc(CC(=O)O)c3-c3cccc(C(=O)O)c3)ccc21 [Structure 30f, 3'-carboxy-2-(5,6,7,8-tetrahydro-5,5,8,8-tetramethyl-2-naphthalenyl)methoxy-[1,1'-biphenyl]-6-acetic acid] | 80
CC1(C)CCC(C)(C)c2cc3cc(-c4cccc(CC(=O)O)c4-c4cccc(C(=O)O)c4)ccc3cc21 [Structure 28c, 3'-carboxy-2-[(1,2,3,4-tetrahydro-1,1,4,4-tetramethyl)-6-anthracenyl]-[1,1'-biphenyl]-6-acetic acid] | 93
CC(C)(C)c1ccc(-c2c(OCc3ccc4c(c3)C(C)(C)CCC4(C)C)cccc2C(=O)O)cc1 [Structure 14o, 2-(5,6,7,8-tetrahydro-5,5,8,8-tetramethyl-2-naphthalenyl)methoxy-[1,1'-biphenyl]-4'-(1,1-dimethylethyl)-6-carboxylic acid] | 99
CC1(C)CCC(C)(C)c2cc(COc3cccc(C(=O)O)c3-c3ccc(CCO)cc3)ccc21 [Structure 14p, 2-(5,6,7,8-tetrahydro-5,5,8,8-tetramethyl-2-naphthalenyl)methoxy-4'-(2-hydroxy-1-ethyl)-[1,1'-biphenyl]-6-carboxylic acid] | 88
CC1(C)CCC(C)(C)c2cc(COc3cccc(C(=O)O)c3-c3cccc(CC(=O)O)c3)ccc21 [Structure 14q, 6-carboxy-2-[5,6,7,8-tetrahydro-5,5,8,8-tetramethyl-2-naphthalenyl]methoxy-[1,1'-biphenyl]-3'-acetic acid] | 72
CC1(C)CCC(C)(C)c2cc(COc3cccc(/C=C/C(=O)O)c3-c3cccc(C(=O)O)c3)ccc21 [Structure 39d, 3'-carboxy-2-[5,6,7,8-tetrahydo-5,5,8,8-tetramethyl-2-naphthalenyl]methoxy-[1,1'-biphenyl]-6-[(E)-3-propenoic acid]] | 72
O=C(O)CCc1cccc(OCc2ccc(OC3CCCC3)c(OC3CCCC3)c2)c1-c1cccc(C(=O)O)c1 [Structure 37b, 2-[3,4-bis(cyclopentyloxy)phenyl]methoxy-3'-carboxy-[1,1'-biphenyl]-6-propanoic acid] | 51
O=C(O)c1cccc(-c2c(OCc3ccc(OC4CCCC4)c(OC4CCCC4)c3)cccc2C(=O)O)c1 [Structure 14d, 2-[(3,4-biscyclopentyloxy)phenyl]methoxy-[1,1 'biphenyl]-6,3'-dicarboxylic acid] | 73
COc1cc(COc2cccc(C(=O)O)c2-c2cccc(C(=O)O)c2)ccc1C12CC3CC(CC(C3)C1)C2 [Structure 14h, 2-[4-(1-adamantyl)-3-methoxyphenyl]methoxy-[1,1,-biphenyl]-6,3'-dicarboxylic acid] | 62
CCCCCOc1ccc(COc2cccc(C(=O)O)c2-c2cccc(C(F)(F)F)c2)cc1OCCCCC [Structure 14j, 2-[(3,4-bispentyloxy)phenyl]methoxy-[1,1'-biphenyl]-3'-trifluoromethyl-6-carboxylic acid] | 98
CCCCCOc1ccc(COc2cccc(C(=O)O)c2-c2ccccc2)cc1OCCCCC [Structure 14i, 2-[(3,4-bispentyloxy)phenyl]methoxy-[1,1'-biphenyl]-6-carboxylic acid] | 99
O=C(O)/C=C/c1cccc(OCc2ccc(OC3CCCC3)c(OC3CCCC3)c2)c1-c1cccc(C(=O)O)c1 [Structure 39b] | 86
CC(C)=CCOc1ccc(COc2cccc(/C=C/C(=O)O)c2-c2cccc(C(=O)O)c2)cc1OCC=C(C)C [Structure 39a, 2-[3,4-his (3-methyl-2-butenyloxy)phenyl]methoxy-3'-carboxy-[1,1'-biphenyl]-6-[(E)-3-propenoic acid]] | 73
CCCCCCCCCCOc1ccc(COc2cccc(CC(=O)O)c2-c2cccc(C(=O)O)c2)cc1 [Structure 30c, 3'-carboxy-2-[4-decyloxyphenyl]methoxy-[1,1'-biphenyl]-6-acetic acid] | 99
COc1cc(COc2cccc(C(=O)O)c2-c2ccccc2)ccc1C12CC3CC(CC(C3)C1)C2 [Structure 14g, 2-[4-(1-adamantyl)-3-methoxyphenyl]methoxy-[1,1'-biphenyl]-6-carboxylicacid] | 44
